Test results published in US9119853B2, “Sanglifehrin based compounds” (priority 2010, dated 2015).
In brackets after ≈: the same amount, converted by molar mass.

Columns and labels:
[1] = system: HCV genotype 1b I389luc-ubi-neo/NS3-3'/5.1 replicon in Huh5.2 cells; experiment: microbe, parasite or virus in culture; assay type: cell-based, Hepatitis C Virus; conditions: for EC50 / EC90: Hepatitis C virus, Huh-5-2, 72 h
[2] = Anti-metabolic effect (MTS) in the replicon cell line; conditions: human
Solubility in PBS pH 7.4 = conditions: for solubility compared to sanglifehrin A (5) and cyclosporine A (1) (in words): PBS pH 7.4; for solubility at 4 h: PBS, pH 7.4, aqueous buffer, kinetic from dmso stock

SMILES | Selectivity index (CC50/EC50) [1] | potency in the Huh5.2 replicon assay (in words) [1] | EC50 [1] [µM] | EC90 [1] [µM] | CC50 at 72 h [2] [µM] | solubility compared to sanglifehrin A (5) and cyclosporine A (1) (in words) (Solubility in PBS pH 7.4) | solubility at 4 h (Solubility in PBS pH 7.4) [µM]
CC(=O)CC[C@H]1C(=O)N[C@@H](C(C)C)C(=O)N[C@@H](Cc2cccc(O)c2)C(=O)N2CCCC(N2)C(=O)O[C@H](/C(C)=C/C=C/C(=O)Nc2ccc(-c3ccccc3)cc2)C/C=C/C=C/[C@H](O)[C@H](C)[C@H]1O (some centres unmarked) [compound 41] | >481 | very potent | 0.208 | 1.1 | > 100 | – | –
CC(=O)CC[C@H]1C(=O)N[C@@H](C(C)C)C(=O)N[C@@H](Cc2cccc(O)c2)C(=O)N2CCCC(N2)C(=O)O[C@H](/C(C)=C/C=C/C(=O)N(C)C)C/C=C/C=C/[C@H](O)[C@H](C)[C@H]1O (some centres unmarked) [compound 22] | >287 | very potent | 0.349 | 6.2 | > 100 | increased solubility | > 100
CC(=O)CC[C@H]1C(=O)N[C@@H](C(C)C)C(=O)N[C@@H](Cc2cccc(O)c2)C(=O)N2CCCC(N2)C(=O)O[C@H](/C(C)=C/C=C/C(=O)NC2CCCCC2)C/C=C/C=C/[C@H](O)[C@H](C)[C@H]1O (some centres unmarked) [compound 51] | >298 | very potent | 0.336 | 4.2 | > 100 | – | –
C/C=C/C[C@H]1C(=O)N[C@@H](C(C)C)C(=O)N[C@@H](Cc2cccc(O)c2)C(=O)N2CCCC(N2)C(=O)O[C@H](/C(C)=C/C=C/C(=O)N(C)OC)C/C=C/C=C/[C@H](O)[C@H](C)[C@H]1O (some centres unmarked) [compound 28] | 28.2 | very potent | 0.628 | 4 | 17.7 | increased solubility | 78 (≈ 63 µg/mL)
CC(=O)CC[C@H]1C(=O)N[C@@H](C(C)C)C(=O)N[C@@H](Cc2cccc(O)c2)C(=O)N2CCCC(N2)C(=O)O[C@H](/C(C)=C/C=C/C(=O)NC(C)C)C/C=C/C=C/[C@H](O)[C@H](C)[C@H]1O (some centres unmarked) [compound 16] | >179 | very potent | 0.56 | 4.6 | > 100 | – | –
CON(C)C(=O)/C=C/C=C(\C)[C@@H]1C/C=C/C=C/[C@H](O)[C@H](C)[C@@H](O)[C@@H](CCC(C)=O)C(=O)N[C@@H](C(C)C)C(=O)N[C@@H](Cc2cccc(O)c2)C(=O)N2CCCC(N2)C(=O)O1 (some centres unmarked) [compound 10] | >617 | very potent | 0.162 | 0.921 | > 100 | increased solubility | > 100
CNC(=O)/C=C/C=C(\C)[C@@H]1C/C=C/C=C/[C@H](O)[C@H](C)[C@@H](O)[C@@H](CCC(C)=O)C(=O)N[C@@H](C(C)C)C(=O)N[C@@H](Cc2cccc(O)c2)C(=O)N2CCCC(N2)C(=O)O1 (some centres unmarked) [compound 19] | >80 | – | 8 | 60.2 | > 100 | increased solubility | > 100
CC(=O)CC[C@H]1C(=O)N[C@@H](C(C)C)C(=O)N[C@@H](Cc2cccc(O)c2)C(=O)N2CCCC(N2)C(=O)O[C@H](/C(C)=C/C=C/C(=O)N(C)C2CCCCC2)C/C=C/C=C/[C@H](O)[C@H](C)[C@H]1O (some centres unmarked) [compound 45] | 449 | very potent | 0.148 | 1.9 | 66.4 | – | –
